{"source": "patent US11266715B2", "about": "“C3A receptor agonists for use against ischemic brain injury, stroke, traumatic brain injury, spinal cord injury and neurodegenerative disorders” (priority 2016, dated 2022)", "tested_on": "GAP-43+ puncta", "experiment": "GAP-43 immunostaining of dorsal hippocampus after neonatal HI", "type": "in vivo, mouse", "protocol": "Neuronal nuclei (NeuN), growth associated protein 43 (GAP-43), synapsin I (SYN), vesicular glutamate transporter 1 (VGLUT1), Glial Fibrillary Acidic Protein (GFAP) and ionized calcium-binding adapter molecule 1 (Iba-1) were visualized in the cornu ammonis (CA) and dentate gyrus (DG) of the dorsal hippocampus by immunohistochemistry. Briefly, following heat-induced antigen retrieval with 0.01 M citrate buffer (pH 6, 0.05% Tween 20) for 3×5 min, sections were washed 3×5 min with PBS-T (0.05% Tween 20), non-specific protein binding was reduced by incubation with blocking buffer [4% normal donkey serum (NeuN and Iba-1), 1% bovine serum albumin (GAP-43 and SYN), 3% normal goat serum (VGLUT1), 2% bovine serum albumin (GFAP) in PBS-T] for 1 h at room temperature (RT). Tissue was then incubated with the primary antibody [anti-NeuN biotinylated (1:200, MAB 377B, Millipore, Mass., USA), anti-GAP-43 (1:1000, MAB347, Millipore, Mass., USA), anti-SYN (1:150, SC-7379, Santa Cruz, Calif., USA), anti-VGLUT1 (1:500, AB5905, Millipore, Mass., USA), anti-GFAP (1:200, Z0334, Dako, Stockholm, Sweden), anti-Iba-1 (1:500, 019-19741, Wako, Osaka, Japan)] in blocking buffer overnight at 4° C. One slide per staining batch was incubated only with blocking buffer without primary antibody and used as a negative control. […]\nNeuN positive cells, GFAP positive relative area, as well as GAP-43, SYN, and VGLUT1 positive puncta were counted by using MetaMorph software (ver. 7.8.6, Molecular Devices, CA, USA) on confocal images obtained with a 20× (NeuN and GFAP) or 63× (GAP-43, SYN, and VGLUT1) objective (Carl Zeiss LSM 700 Laser Scanning Microscope, Jena, Germany). Iba-1 positive cell somata were counted on bright field images obtained with a 20× objective (Nikon Eclipse 80i). […]"}
{"substance": "C3a: Purified human C3a peptide (Complement Technologies), C3a receptor agonist, amino acid sequence SEQ ID NO: 1", "values": [{"measurement": "density of GAP-43+ puncta in CA1", "setting": "between groups", "result": "did not find any differences between groups"}, {"measurement": "expression of GAP-43 in the dentate gyrus", "setting": "mouse, in vivo", "result": "No effect"}, {"measurement": "average GAP-43+ punctum area in CA1 of HI injured hippocampus vs sham mice", "setting": "p<0.05 for PBS", "result": "PBS treated, but not C3a treated, mice was larger compared with sham mice"}]}
